US20230192661A1, “1, 4, 5, 6-TETRAHYDROPYRIMIDINE-2-AMINE DERIVATIVE” (UBE Corporation, priority 2020, published 2023)
pIC50: −log10 of the molar value.

Test system: Human hepatic stellate cells
Assay: Active human hepatic stellate cell dedifferentiation test (decrease in ACTA2 mRNA expression)
Format: cell-based
Conditions: 3 days differentiation then 2 days with compound, read-out: IC50 (rate of decrease in ACTA2 mRNA expression)
Experimental: Human hepatic stellate cells (manufactured by ScienCell Research Laboratories, Inc., 5300) were suspended in DMEM containing 10% FBS and […] penicillin/streptomycin/amphotericin B to prepare a cell suspension of 0.5×10^5 cells/mL, which was regarded as cells at the start of differentiation. The cells at the start of differentiation were dispensed at 1 mL/well to a 12-well plate and cultured, for differentiation, for 3 days in a 5% CO2 incubator (37° C.).
The culture solution in each well was removed, and DMEM containing 10% FBS and 1% penicillin/streptomycin/amphotericin B supplemented with a test compound dissolved in DMSO (final DMSO concentration: 0.1%) was added at 1 mL/well. The resultant was further cultured for 2 days in a 5% CO2 incubator (37° C.). In Test Example 4, the same reagents as in Test Example 1 were used unless otherwise specified.
RNA in the cultured cells was extracted using NucleoSpin® RNA (manufactured by Takara Bio Inc., U0955C), and cDNA was further synthesized from the extracted RNA using Prime Script™ RT reagent Kit with gDNA Eraser (manufactured by Takara Bio Inc., RR047A). Real time PCR was performed using the synthesized cDNA, various primers and TB Green® Premix Ex Taq™ II (manufactured by Takara Bio Inc., RR820A) and using PCR Thermal Cycler Dice Real Time (manufactured by Takara Bio Inc., System Code TP910, Model Code TP900). The primers used were actin alpha 2, smooth muscle (ACTA2) primer (manufactured by Takara Bio Inc., HA136273) and glyceraldehyde-3-phosphate dehydrogenase (GAPDH) primer (manufactured by Takara Bio Inc., HA067812).
The amplification curve of PCR was analyzed by the comparative Ct method. The expression level of ACTA2 mRNA was corrected with the expression level of GAPDH mRNA. An ACTA2 mRNA expression level when DMSO was added instead of the test compound was defined as 100%, and an ACTA2 mRNA expression level in the cells at the start of differentiation was defined as 0%. The rate of decrease in ACTA2 mRNA expression by the test compound was calculated according to the following expression.
Rate of decrease in ACTA2 mRNA expression (%)=[1−{(ACTA2 mRNA expression level in the case of adding the test compound)−(ACTA2 mRNA expression level in the cells at the start of differentiation)}/{(ACTA2 mRNA expression level in the case of adding DMSO)−(ACTA2 mRNA expression level in the cells at the start of differentiation)}]×100
An IC50 value was calculated from the rate of decrease in ACTA2 mRNA expression by the test compound. A: IC50<10 nM, B: 10 nM≤IC50<50 nM, C: 50 nM≤IC50<100 nM, or D: IC50≥100 nM.

Compound | pIC50
O=C(O)C[C@H](NC(=O)CNC(=O)c1cc(NC2=NCC(F)CN2)cc2[nH]ncc12)c1cc(Br)cc(C(F)(F)F)c1 (stereo partly drawn) [Example 53-(b), (3S)-3-(3-bromo-5-(trifluoromethyl)phenyl)-3-(2-(6-((5-fluoro-1,4,5,6-tetrahydropyrimidin-2-yl)amino)-1H-indazole-4-carboxamido)acetamido)propanoic acid] | 7.30 to 8.00
O=C(O)C[C@H](NC(=O)CNC(=O)c1cc(NC2=NCC(F)CN2)cc2[nH]ncc12)c1cc(I)cc(C(F)(F)F)c1 (stereo partly drawn) [Example 54-(b), (3S)-3-(2-(6-((5-fluoro-1,4,5,6-tetrahydropyrimidin-2-yl)amino)-1H-indazole-4-carboxamido)acetamido)-3-(3-iodo-5-(trifluoromethyl)phenyl)propanoic acid] | 7.30 to 8.00
O=C(O)C[C@H](NC(=O)CNC(=O)c1cc(NC2=NCC(F)CN2)cc2[nH]ncc12)c1ccc(F)c(C(F)(F)F)c1 (stereo partly drawn) [Example 55-(b), (3S)-3-(2-(6-((5-fluoro-1,4,5,6-tetrahydropyrimidin-2-yl)amino)-1H-indazole-4-carboxamido)acetamido)-3-(4-fluoro-3-(trifluoromethyl)phenyl)propanoic acid] | > 8.00
O=C(O)C[C@H](NC(=O)CNC(=O)c1cc(NC2=NCC(F)CN2)cc2[nH]ncc12)c1cccc(C(F)(F)F)c1 (stereo partly drawn) [Example 56-(b), (3S)-3-(2-(6-((5-fluoro-1,4,5,6-tetrahydropyrimidin-2-yl)amino)-1H-indazole-4-carboxamido)acetamido)-3-(3-(trifluoromethyl)phenyl)propanoic acid] | > 8.00
